Where a name gives a salt, the structure may show the parent alone.
Assays:
Type in all cases: functional
Conditions in all cases: read-out: IZ
[1] = tested on: Escherichia coli; assay: Antimicrobial activity against Escherichia coli B ATCC 11303 at 6 ug
[2] = tested on: Bacillus subtilis; assay: Antimicrobial activity against Bacillus subtilis ATCC 6633 at 0.6 ug
[3] = tested on: Escherichia coli; assay: Antimicrobial activity against Escherichia coli B ATCC 11303 at 400 ug
[4] = tested on: Bacillus subtilis; assay: Antimicrobial activity against Bacillus subtilis ATCC 6633 at 400 ug
[5] = tested on: Penicillium digitatum; assay: Antimicrobial activity against Penicillium digitatum at 40 ug
[6] = tested on: Saccharomyces cerevisiae; assay: Antimicrobial activity against Saccharomyces cerevisiae at 400 ug
[7] = tested on: Penicillium digitatum; assay: Antimicrobial activity against Penicillium digitatum at 24 ug
[8] = tested on: Saccharomyces cerevisiae; assay: Antimicrobial activity against Saccharomyces cerevisiae at 24 ug

With `CN[C@@H]1[C@H](O[C@H]2[C@H](O[C@H]3[C@H](O)[C@@H](O)[C@H](N=C(N)N)[C@@H](O)[C@@H]3N=C(N)N)O[C@@H](C)[C@]2(O)C=O)O[C@@H](CO)[C@H](O)[C@H]1O` [STREPTOMYCIN SULFATE] the zone of inhibition at 6 µg/disc [1] was 17 mm and the zone of inhibition at 0.6 µg/disc [2] was 16 mm.
Compound `COC(=O)c1c(C)cc(O)c(C)c1O` [ATRARIC ACID] has a zone of inhibition at 400 µg/disc [3] of 15 mm, a zone of inhibition at 400 µg/disc [4] of 17 mm and a zone of inhibition at 40 µg/disc [5] of 29 mm. It also gave a zone of inhibition at 400 µg/disc [6] of 18 mm.
Work on `CCCCC[C@@H](O)[C@H]1C(=O)O[C@H](C)[C@@H](O)/C=C/C=C/C=C/C=C/C=C(\C)[C@@H](O)C[C@H](O)C[C@H](O)C[C@H](O)C[C@H](O)C[C@H](O)C[C@@H]1O` [FILIPIN] yielded a zone of inhibition at 24 µg/disc [7] of 29 mm and a zone of inhibition at 24 µg/disc [8] of 21 mm.

— ChEMBL document CHEMBL1151646, “Methyl -Orcinolcarboxylate and Depsides from Parmelia furfuracea” (1985)
